# Where two headings read alike, the source gives them in different places.
# Key:
# [1] = total clearance after intravenous administration to PXB-mice; assay type: in vivo, PXB‐mice (chimeric mice with humanized livers); conditions: intravenous cassette dose 0.1 mg/kg, N = 3, noncompartmental analysis
# [2] = total clearance after intravenous administration to rats; assay type: in vivo, Sprague–Dawley rats; conditions: intravenous cassette dose 0.1 mg/kg, N = 3
# [3] = prediction of CLt,human by single-species allometric scaling from PXB-mice; set-up: species or system humans; conditions: for Predicted CLt,human, PXB‐SSS: scaled from CLt in PXB-mice, exponent 0.75; for Fold error (predicted/observed), PXB‐SSS: predicted/observed CLt,human
# [4] = prediction of CLt,human by physiologically based scaling using PXB-mice; set-up: species or system humans; conditions: for Predicted CLt,human, PXB‐PBS: from CLt in PXB-mice, dispersion model, CLint per hepatocyte assumed equal; for Fold error (predicted/observed), PXB‐PBS: predicted/observed CLt,human
# [5] = blood‐to‐plasma concentration ratio, ref Table S1; cited from earlier work
# [6] = ref Table S1; cited from earlier work
# [7] = ref Table S1; cited from earlier work; remark: listed apart in the source
# [8] = humans; ref Table S1; cited from earlier work
# [9] = prediction of CLt,human by multispecies allometric scaling, rule of exponent; conditions: for Predicted CLt,human, ROE: from CLt in rats, monkeys and dogs
# [10] = system: cryopreserved human hepatocytes; assay: in vitro metabolic stability assay using cryopreserved human hepatocytes; conditions: for turnover during a 4‐h incubation in the human hepatocyte assay: criterion for low‐CLint compounds: no significant turnover (<20%); for CLint per hepatocyte, Humans: in vitro, human hepatocytes, corrected with fraction unbound in hepatocytes and medium
# [11] = for Predicted CLt,human, FCIM: from CLt in rats, monkeys and dogs and fu,p ratio rat/human
# [12] = fraction unbound in plasma, equilibrium dialysis; assay type: in vitro ADME, humans; conditions: fraction unbound in human plasma
# [13] = fraction unbound in rat plasma; ref Table S1; cited from earlier work
# [14] = prediction of CLt,human by in vitro–in vivo extrapolation; set-up: species or system humans; conditions: from in vitro CLint per human hepatocyte, dispersion model
# [15] = ref Table S1; cited from earlier work; remark: listed apart in the source
# [16] = total clearance after intravenous administration to monkeys; assay type: in vivo, cynomolgus monkeys; conditions: intravenous cassette dose 0.1 mg/kg, N = 3
SMILES,"CLt, PXB‐mice [1] [mL/min/kg]","CLt, Rats [2] [mL/min/kg]","Predicted CLt,human, PXB‐SSS [3] [mL/min/kg]","Predicted CLt,human, PXB‐PBS [4] [mL/min/kg]","R b, Humans [5]","CLt, Monkeys [6] [mL/min/kg]","CLt, Dogs [7] [mL/min/kg]","Observed CLt,human [8] [mL/min/kg]","Predicted CLt,human, ROE [9] [mL/min/kg]",turnover during a 4‐h incubation in the human hepatocyte assay [10] [%],"Predicted CLt,human, FCIM [11] [mL/min/kg]","f u,p, Humans [12]","f u,p, Rats [13]","Predicted CLt,human, IVIVE [14] [mL/min/kg]","CLint per hepatocyte, Humans [10] [µl/min/1 × 10^6 cells]",further results
COc1ccc2cc([C@H](C)C(=O)O)ccc2c1 [(S)‐Naproxen],0.556,0.41,0.072,0.085,0.55,0.83,0.04,0.11,0.051,–,–,–,–,–,–,–
CC(=O)C[C@@H](c1ccccc1)c1c(O)c2ccccc2oc1=O [(S)‐Warfarin],0.484,0.21,0.062,0.074,0.55,–,–,0.055,0.417,< 20,0.330,–,–,–,–,"% remaining after a 4‐h incubation ([10]; cryopreserved human hepatocytes, 0.5 million cells/ml, 0.1 or 1 µmol/l, 4 h): 80%; discrepancy between observed and predicted CLt,human, ROE approach [9]: more than 3 fold; discrepancy between observed and predicted CLt,human, FCIM approach [11]: more than 3 fold"
Cc1cc(=O)n(-c2ccccc2)n1C [Antipyrine],4.60,7.86,0.59,0.71,1,11.5,7.22,0.64,3.32,< 20,3.31,0.990,0.690,–,–,"Fold error (predicted/observed), PXB‐SSS [3]: 0.92; Fold error (predicted/observed), PXB‐PBS [4]: 1.10; discrepancy between observed and predicted CLt,human, ROE approach [9]: more than 3 fold; Fold error (predicted/observed), ROE ([9]; predicted/observed CLt,human): 5.19; discrepancy between observed and predicted CLt,human, FCIM approach [11]: more than 3 fold; Fold error (predicted/observed), FCIM ([11]; predicted/observed CLt,human): 5.17"
COc1ccccc1Oc1c(NS(=O)(=O)c2ccc(C(C)(C)C)cc2)nc(-c2ncccn2)nc1OCCO [Bosentan],8.78,–,1.18,1.39,0.48,20.6,1.72,2.1,1.68,–,5.37,–,–,0.68,12.3,"CLt, Rats [15]: 16.40 mL/min/kg"
Nc1ccc(S(=O)(=O)c2ccc(N)cc2)cc1 [Dapsone],4.40,6.87,0.60,0.67,–,–,–,–,0.91,< 20,2.01,0.381,–,–,–,–
CN1C(=O)CN=C(c2ccccc2)c2cc(Cl)ccc21 [Diazepam],42.147,–,5.68,7.52,0.71,17.90,46.71,0.38,12.46,–,2.53,–,–,0.69,–,"CLt, Rats [15]: 61.51 mL/min/kg"
CC(C)N(CCC(C(N)=O)(c1ccccc1)c1ccccn1)C(C)C (stereo not drawn) [Disopyramide],28.86,179.46,3.72,4.63,1.2,19,29,0.9,7.36,–,–,0.161,0.610,1.24,3.2,–
COc1cc2nc(N3CCN(C(=O)C4COc5ccccc5O4)CC3)nc(N)c2cc1OC (stereo not drawn) [Doxazosin],34.245,–,4.61,5.65,–,–,–,–,3.93,–,6.20,0.066,–,5.62,41.5,–
CNC(=C[N+](=O)[O-])NCCSCc1ccc(CN(C)C)o1 [Ranitidine],131.02,99.88,16.9,16.4,–,–,–,–,5.4,–,11.1,1.000,0.900,–,–,–
CCOc1ccccc1OC(c1ccccc1)C1CNCCO1 (stereo not drawn) [Reboxetine],–,–,2.39,2.79,–,14.94,22.39,0.82,9.52,–,1.82,–,–,1.37,13.9,"CLt, Rats [15]: 61.51 mL/min/kg"
Cn1c(=O)c2[nH]cnc2n(C)c1=O [Theophylline],4.70,1.91,0.60,0.72,0.85,1.08,1.73,–,0.68,< 20,–,–,–,–,–,–
CC(C)(C)NC[C@H](O)COc1nsnc1N1CCOCC1 [Timolol],130.05,137.02,16.8,13.7,0.84,13.6,–,8.5,–,< 20,–,0.715,0.760,–,–,"Fold error (predicted/observed), PXB‐SSS [3]: 1.98; Fold error (predicted/observed), PXB‐PBS [4]: 1.62"
CCCCNC(=O)NS(=O)(=O)c1ccc(C)cc1 [Tolbutamide],0.58,0.39,0.074,0.088,–,–,–,–,0.040,< 20,–,–,–,–,–,"CLt, Monkeys [16]: 0.0456 mL/min/kg"

# — article PMC8742647 (Clinical and Translational Science, 2021)
